{
  "source": "patent US5219998A",
  "about": "“Yeast-derived epidermal growth factor” (priority 1991, dated 1993)",
  "key": {"[1]": {"system": "anti-mEGF antibody", "experiment": "Anti-murine EGF Elisa titration", "type": "binding, goat", "settings": "Elisa absorbance; significant at <0.1; standard error 0.019", "method": "One ml of a 100 mg/ml sample of a yeast extract yEGF(Fraction I) was diluted to 10% with trichloroacetic acid (Fisher Scientific no. A322-100) and allowed to stand for 30 minutes on ice. Precipitated material was collected on a centrifuge at 10,000×g for 10 minutes, and washed twice with 95% ethanol. The insoluble material was dissolved in 1 ml of water and dispersed in a 96 well plate by serial dilutions. Unbound antigen was removed after 3 hours at 37° C. and the plate was incubated with monospecific anti-mEGF antibody overnight at 4° C. Excess antibody was removed by washing the plates and a second antibody conjugated to alkaline phosphatase was added to each well. After 3 hours at 37° C., the excess second antibody was removed and the amount of alkaline phosphatase per well was determined. The Elisa test was dependent on the amount of y-EGF present. In preparation of the materials for the titration shown in the graph of FIG. 6, one hundred microliters of PBS was added to each well of a 96 well microtiter plate. Twenty five microliters of 10 mg/ml yEGF was added to the second well of each row. After mixing, 25 microliters was transferred to the third well in the row. The process was repeated until all the wells had dilutions of yEGF. The antigen was allowed to bind at 37° C. for 3 hours and the plate was washed 3 times with PBS containing 0.05% Tween-20(TPBS). […]"}, "[2]": {"system": "A431 cells", "experiment": "A431 cellular respiration assay (Clark oxygen electrode)", "type": "cell-based, human", "method": "In preparing to carry out the titration the results of which are shown in FIG. 2, 10 cm dishes of A431 cells were washed twice and incubated in 5 ml of DME containing 0.1% bovine serum albumin for 1 hour in a CO2 incubator. The cells were collected by trypsinization and resuspended at 2-3×10^6 cells per ml in DME containing 0.1% bovine serum albumin. One ml of the cell suspension was transferred to a glass tube that as maintained at 37° C. with circulating water. The cells were allowed to equilibrate at temperature for 5 minutes, and a Clark oxygen electrode was inserted into the vessel. Potentiometric readings were continuously taken from the electrode using a YSI oxygraph that was attached to a recorder. […] Respiration was allowed to continue until an accurate rate could be observed on the recorder. The rates of respiration were converted to microliters of oxygen per hour per 2×10^6 cells.\nSimilarly, the yEGF fractions were titered by measuring their immediate effect on the consumption of oxygen by A431 cells.\nThe Experimental Over Control (EXP/CON) is the rate of respiration observed with yEGF(Fraction I) divided by the basal respiration rate for that sample."}, "[3]": {"system": "A431 cells", "experiment": "Relative stability at 55° C. measured by stimulation of A431 cellular respiration", "type": "cell-based, human", "settings": "100 ng of mEGF", "method": "Referring to FIG. 4, a graph is shown summarizing the results obtained for yEGF(Fraction I) and mEGF.\nIn preparation for the titration the results of which are shown in FIG. 4, twenty microliter samples of either 100 ng of mEGF or 500 ug of yEGF(Fraction I) were incubated for various times at 55° C. The samples were removed and assayed for their ability to stimulate A431 cell respiration. The procedures for measuring respiration were the same as those which are summarized in relationship to the work leading to FIG. 2."}, "[4]": {"target": "human EGF receptor (Homo sapiens, UniProt P00533)", "experiment": "Binding to EGF receptor of A431 cells (125I-mEGF competition)", "settings": "read-out: binding constant (KD), same experiment"}},
  "data": [
    {"substance": "mEGF: pure murine EGF (Collaborative Research no 40001)", "values": [
      {"measurement": "regression coefficient: one ug equals 0.0518(ABS)--0.0223", "setting": "[1]", "result": 0.0518},
      {"measurement": "% Stimulation of A431 respiration", "setting": "[2]; 6.5 ug/ml a-mEGF", "result": 1.5, "unit": "%"},
      {"measurement": "% Stimulation of A431 respiration", "setting": "[2]; 10 ug/ml murine IGG", "result": 91.8, "unit": "%"},
      {"measurement": "% Stimulation of A431 respiration", "setting": "[2]; 0.1mM DTT", "result": 44.8, "unit": "%"},
      {"measurement": "effect of Dithiotrietol (DTT) on activity", "setting": "[2]; DTT", "result": "enhanced"},
      {"measurement": "slope of regression Z=1.512 ug/ml EGF+1.03", "setting": "[2]; Z = respiration ratio to control, concentration in ug/ml, intercept 1.03, 98% confidence", "result": 1.512},
      {"measurement": "activity after boiling", "setting": "[2]; boiled", "result": "denatured"},
      {"measurement": "% Stimulation of A431 respiration", "setting": "[2]; no pretreatment, 0.5 ug/ml mEGF or 1.0 mg/ml yEGF (Fraction I)", "result": 17.8, "unit": "%"},
      {"measurement": "% Stimulation of A431 respiration", "setting": "[2]; pretreatment 30 min 2 ug/ml ProK", "result": 1.0, "unit": "%"},
      {"measurement": "% Stimulation of A431 respiration", "setting": "[2]; pretreatment 30 min 2 ug/ml RNase A", "result": 17.6, "unit": "%"},
      {"measurement": "% Stimulation of A431 respiration", "setting": "[2]; pretreatment 30 min 2ug/ml trypsin", "result": 1, "unit": "%"},
      {"measurement": "% Stimulation of A431 respiration", "setting": "[2]; pretreatment 30 min 10 ug/ml DNasel", "result": 18.2, "unit": "%"},
      {"measurement": "% Stimulation of A431 respiration", "setting": "[2]; pretreatment Boiling", "result": 2.1, "unit": "%"},
      {"measurement": "time to loss of ability to stimulate respiration", "setting": "[3]", "result": "≤ 10", "unit": "min"},
      {"measurement": "Kd", "setting": "[4]", "result": 2.42, "unit": "nM"}
    ]}
  ]
}
